# Test results: US20070248996A1, “Modulators of beta-amyloid peptide aggregation comprising D-amino acids” (Paraecis Pharmaceuticals, Inc., priority 1995, published 2007)
# Like-named read-outs stand apart in the source and are kept apart here. Square brackets hold non-standard residues; d marks the D form. Peptide text beside a SMILES is read from it. * marks the point of attachment. Isoquinolin(3-yl)carbonyl = O=C(c1cc2ccccc2cn1)*; Quinoline4carbonyl = O=C(c1ccnc2ccccc12)*; Acetyl(3-pyridyl) = O=C(Cc1cccnc1)*; Benzoyl(4-OH) = O=C(c1ccc(O)cc1)*; d3Pal = N[C@H](Cc1cccnc1)C(=O)O; X1 = O=C(c1cc2cc(O)ccc2cc1O)*; X5 = O=C(c1nccc2ccccc12)*
# Target: Aβ1-40 (Homo sapiens, UniProt P05067)
# Sequence (P05067 672-711): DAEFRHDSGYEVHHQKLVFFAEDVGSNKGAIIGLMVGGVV
# Format: biochemical
# Design: ΔLag: unit not given here
# Conditions: for ΔLag: Table XI; for ΔLag 5.0 μM / ΔLag 0.5 μM / ΔLag […]: Table VI; for ΔLag 5.0 μM: 5.0 μM test compound; for ΔLag […]: […] test compound; for ΔLag 3 μM: 3 μM test compound; for ΔLag 4 μM: 4 μM test compound
# Text: The nucleation assay is employed to determine the ability of test compounds to alter (e.g. inhibit) the early events in formation of β-AP fibers from monomeric β-AP. Characteristic of a nucleated polymerization mechanism, a lag time is observed prior to nucleation, after which the peptide rapidly forms fibers as reflected in a linear rise in turbidity. The time delay before polymerization of β-AP monomer can be quantified as well as the extent of formation of insoluble fiber by light scattering (turbidity). Polymerization reaches equilibrium when the maximum turbidity reaches a plateau The turbidity of a solution of natural β-AP in the absence or presence of various concentrations of a β-amyloid modulator compound is determined by measuring the apparent absorbance of the solution at 405 nm (A405 nm) over time. The threshold of sensitivity for the measurement of turbidity is in the range of 15-20 μM β-AP. […] This assay can be performed using stirring or shaking to accelerate polymerization, thereby increasing the speed of the assay. Moreover the assay can be adapted to a 96-well plate format to screen multiple compounds.
# HFIP-solubilized peptide is sonicated in a waterbath sonicator for 5 min at highest setting, then evaporated to dryness under a stream of argon. The peptide film is resuspended in anhydrous dimethylsulfoxide (DMSO) at a concentration of 6.9 mg/ml (25× concentration), sonicated for 5 min as before, then filtered through a 0.2 micron nylon syringe filter (VWR cat. No.28196-050). Test compounds are dissolved in DMSO at a 100× concentration. […] Ten microliters of the mixture is then added to the bottom of a well of a Corning Costar ultra low binding 96-well plate (Coming Costar, Cambridge Mass.; cat. No. 2500). Ninety microliters of water is added to the well, the plate is shaken on a rotary shaken at a constant speed at room temperature for 30 seconds, an additional 100 μl of 2× PTL buffer (20 mM NaH2PO4, 300 mM NaCl, pH 7.4) is added to the well, the plate is reshaken for 30 seconds and a baseline (t=0) turbidity reading is taken by measuring the apparent absorbance at 405 nm using a Bio-Rad Model 450 Microplate Reader. The plate is then returned to the shaker and shaken continuously for 5 hours. Turbidity readings are taken at 15 minute intervals.
# β-amyloid aggregation in the absence of any modulators results in enhanced turbidity of the natural β-AP solution (i.e., an increase in the apparent absorbance at 405 nm over time). […]
# [1] = Table IV, hydrophobic modifying groups, 5 μM test compound
# [2] = Table III, modifying groups derived from bile acids, 5 μM test compound
# [3] = Table I, 5 μM Aβ1-40, 2 μM test compound, ratio of lag time with compound to lag time of control
# [4] = Table I, 5 μM Aβ1-40, 5 μM test compound, ratio of lag time to control
# [5] = Table II, second series, different stock of Aβ1-40, 2 μM test compound
# [6] = Table II, second series, different stock of Aβ1-40
# [7] = Table II, second series, different stock of Aβ1-40, 5 μM test compound
# [8] = Table V, hydroxylated and oxygenated modifying groups, 5 μM test compound
compound,measurement,setting,value
"CC(C)C[C@@H](NC(=O)[C@H](NC(=O)[C@@H](Cc1ccccc1)NC(=O)[C@@H](Cc1ccccc1)NC(=O)[C@@H](C)NC(=O)CN)C(C)C)C(N)=O [PPI-734, H-Glycyl-d(AFFVL)-nh2]",ΔLag,5 μM test compound,>10
Acetyl-d(VF)-PEA [PPI-495],ΔLag 5 μM,[1],1.0
Ursodeoxycholyl-LVFFA-oh [PPI-522],ΔLag 5 μM,[2],>2.3
same,ΔLag 5 μM,"Table IX, 5 μM test compound",1.2
Phenylacetyl-d(LVFF)-nh2 [PPI-480],ΔLag 5 μM,[1],1.0
4-Hydroxybenzoyl-d(AFFVL)-nh2 [PPI-629],ΔLag 5 μM,"Table IX, 5 μM test compound",2.9
"CC(C)C[C@@H](NC(=O)[C@H](NC(=O)[C@@H](Cc1ccccc1)NC(=O)[C@@H](Cc1ccccc1)NC(=O)[C@@H](Cc1cccnc1)NC(=O)c1cc2cc(O)ccc2cc1O)C(C)C)C(N)=O [PPI-664, 3,7-Dihidroxy-2-naphthol-d(Pal-FFVL)-nh2] (X1-[d3Pal][dF][dF][dV][dL]-NH2)",ΔLag,0.5 μM test compound,0
same,ΔLag,5 μM test compound,2
Hydrocinnamoyl-d(FFFVL)-nh2 [PPI-636],ΔLag 5 μM,"Table IX, 5 μM test compound",1.7
Acetyl-d(LVYFA)-nh2 [PPI-505],ΔLag 5.0 μM,,1.0
Glycolyl-d(AFFLL)-nh2 [PPI-592],ΔLag 5 μM,"Table IX, 5 μM test compound",1.8
h-d(LFFVL)-nh2 [PPI-578],ΔLag 0.5 μM,0.5 μM test compound,2.5
same,ΔLag 5.0 μM,,>7.5
same,ΔLag […],,4.8
same,ΔLag 5 μM,"Table X, 5 μM test compound",3.2
1-Adamantanecarbonyl-d(LVFF)-nh2 [PPI-492],ΔLag 5 μM,[1],1.1
CA-LVYFA-cooh [PPI-399],ΔLag 2 μM,[3],3.0
same,ΔLag 5 μM,[4],6
Acetyl-d(LV(IodoY)FA)-nh2 [PPI-506],ΔLag 5.0 μM,,1.0
H-d(A[homoPhe][homoPhe]VL)-nh2 [PPI-571],ΔLag 5 μM,"Table X, 5 μM test compound",>6
"3,4-Dihydroxycinnamoyl-d(LVFFA)-nh2 [PPI-543]",ΔLag 5 μM,"Table IX, 5 μM test compound",1.6
CA-d(LVYFA)-oh [PPI-455],ΔLag 2 μM,[5],1.8
same,ΔLag 3 μM,[6],2.0
same,ΔLag 4 μM,[6],2.3
same,ΔLag 5 μM,[7],>2.7
"CC(C)C[C@@H](N)C(=O)N[C@@H](C(=O)N[C@H](Cc1ccccc1)C(=O)N[C@H](Cc1ccccc1)C(=O)N[C@H](Cc1ccccc1)C(N)=O)C(C)C [PPI-656, H-d(LVFFF)-nh2] (H-[dL][dV][dF][dF][dF]-NH2)",ΔLag,0.5 μM test compound,2.3
same,ΔLag,5 μM test compound,>2.5
h-d(LV(IodoY)FA)-nh2 [PPI-504],ΔLag 5.0 μM,,2.2
same,ΔLag 5 μM,"Table X, 5 μM test compound",1.4
Isobutanoyl-d(LVFFA)-nh2 [PPI-526],ΔLag 5 μM,[1],1.8
h-d(LVFF)-nh2 [PPI-471],ΔLag 2 μM,[5],2.6
same,ΔLag 3 μM,[6],2.6
same,ΔLag 4 μM,[6],2.6
same,ΔLag 5 μM,[7],2.4
"3,5-Dihydroxy-2-naphthoyl-d(LVFFA)-nh2 [PPI-523]",ΔLag 5 μM,[8],3.8
same,ΔLag 5 μM,"Table VIII, 5 μM test compound",2.1
Triphenylacetyl-d(LVFF)-nh2 [PPI-485],ΔLag 5 μM,[1],2.7
"CC(C)C[C@@H](NC(=O)c1ccc(O)cc1)C(=O)N[C@@H](C(=O)N[C@H](Cc1ccccc1)C(=O)N[C@H](Cc1ccc(O)cc1)C(=O)N[C@H](C)C(N)=O)C(C)C [PPI-772, 4-Hydroxybenzoyl-d(LVFYA)-nh2] ({Benzoyl(4-OH)}-[dL][dV][dF][dY][dA]-NH2)",ΔLag,5 μM test compound,2
"CC(C)C[C@@H](NC(=O)[C@H](NC(=O)[C@@H](Cc1ccccc1)NC(=O)[C@@H](Cc1ccccc1)NC(=O)[C@@H](C)NC(=O)Cc1cccnc1)C(C)C)C(N)=O [PPI-730, 3-Pyridylacetyl-d(AFFVL)-nh2] ({Acetyl(3-pyridyl)}-[dA][dF][dF][dV][dL]-NH2)",ΔLag,5 μM test compound,2
L-3-Phenyllactyl-d(AFFVL)-nh2 [PPI-608],ΔLag 5 μM,"Table IX, 5 μM test compound",>6
H-d(LVFFL)-nh2 [PPI-655],ΔLag 5 μM,"Table X, 5 μM test compound",>6
h-d(FFFVL)-nh2 [PPI-579],ΔLag 0.5 μM,0.5 μM test compound,1.8
same,ΔLag 5.0 μM,,>7.5
same,ΔLag […],,6.3
same,ΔLag 5 μM,"Table X, 5 μM test compound",>6
"CC(C)C[C@@H](NC(=O)[C@H](NC(=O)[C@@H](Cc1ccccc1)NC(=O)[C@@H](Cc1ccccc1)NC(=O)[C@@H](C)NC(=O)c1ccnc2ccccc12)C(C)C)C(N)=O [PPI-746, 4-Quinolinecarboxyl-d(AFFVL)-nh2] (Quinoline4carbonyl-[dA][dF][dF][dV][dL]-NH2)",ΔLag,5 μM test compound,2
H-d(LFFFL)-nh2 [PPI-638],ΔLag 5 μM,"Table X, 5 μM test compound",>6
3-(4-Hydroxyphenyl)propionyl-d(FFVL)-nh2 [PPI-616],ΔLag 5 μM,"Table IX, 5 μM test compound",1.5
CA-d(LVF(IY)A)-oh [PPI-463],ΔLag 2 μM,[5],>2.7
same,ΔLag 3 μM,[6],>2.7
same,ΔLag 4 μM,[6],>2.7
same,ΔLag 5 μM,[7],>2.7
h-d(AAAAA)-nh2 [PPI-473],ΔLag 3 μM,[6],1.0
same,ΔLag 4 μM,[6],1.0
same,ΔLag 5 μM,[7],1.0
"3,7-Dihydroxy-2-naphthoyl-d(FFFVL)-nh2 [PPI-650]",ΔLag 5 μM,"Table IX, 5 μM test compound",2.2
"3,7-Dihydroxy-2-naphthoyl-d(LVFFA)-nh2 [PPI-548]",ΔLag 5 μM,"Table VIII, 5 μM test compound",2.5
"CC(C)C[C@@H](N)C(=O)N[C@@H](C(=O)N[C@H](Cc1ccccc1)C(=O)N[C@H](Cc1ccccc1)C(=O)N[C@@H](C(N)=O)C(C)C)C(C)C [PPI-657, H-d(LVFFV)-nh2] (H-[dL][dV][dF][dF][dV]-NH2)",ΔLag,0.5 μM test compound,1.7
same,ΔLag,5 μM test compound,>10
(±)-Mandelyl-d(AFFVL)-nh2 [PPI-584],ΔLag 5 μM,"Table IX, 5 μM test compound",4.8
4-Methylvaleryl-d(LVFFA)-nh2 [PPI-524],ΔLag 5 μM,[1],1.6
h-d(LVYFA)-nh2 [PPI-503],ΔLag 5.0 μM,,1.2
Chenodeoxycholyl-LVFFA-oh [PPI-521],ΔLag 5 μM,[2],>2.3
same,ΔLag 5 μM,"Table IX, 5 μM test compound",3.6
"CC(C)C[C@@H](NC(=O)[C@H](NC(=O)[C@@H](Cc1ccccc1)NC(=O)[C@@H](Cc1ccccc1)NC(=O)[C@@H](C)NC(=O)c1nccc2ccccc12)C(C)C)C(N)=O [PPI-748, 1-Isoquinolinecarboxyl-d(AFFVL)-nh2] (X5-[dA][dF][dF][dV][dL]-NH2)",ΔLag,5 μM test compound,<3
h-d(LVFA)-oh [PPI-479],ΔLag 2 μM,[5],1.1
same,ΔLag 3 μM,[6],0.9
same,ΔLag 4 μM,[6],1.0
same,ΔLag 5 μM,[7],1.1
3-(2-Hydroxyphenyl)propionyl-d(FFVL)-nh2 [PPI-615],ΔLag 5 μM,"Table IX, 5 μM test compound",2.0
3-Formylbenzoyl-d(LVFFA)-nh2 [PPI-546],ΔLag 5 μM,"Table IX, 5 μM test compound",1.9
h-d(VF)-PEA [PPI-497],ΔLag 5 μM,[1],1.0
"3,7-Dihydroxy-2-naphthoyl-d(LFFVL)-nh2 [PPI-648]",ΔLag 5 μM,"Table IX, 5 μM test compound",3.1
cholyl-Leu-Val-Phe-Phe-Ala-NH2 [PPI-382],ΔLag 2 μM,[3],>10
same,ΔLag 5 μM,[4],>12
CC(C)C[C@@H](NC(=O)[C@H](NC(=O)[C@@H](Cc1ccccc1)NC(=O)[C@@H](Cc1ccccc1)NC(=O)[C@@H](C)NC(=O)c1cc2ccccc2cn1)C(C)C)C(N)=O [PPI-749] ({Isoquinolin(3-yl)carbonyl}-[dA][dF][dF][dV][dL]-NH2),ΔLag,5 μM test compound,3
h-d(VF)-PEA [PPI-493],ΔLag 2 μM,[5],1.0
same,ΔLag 3 μM,[6],1.0
same,ΔLag 4 μM,[6],1.0
same,ΔLag 5 μM,[7],1.9
(±)-Mandelyl-d(LVFF)-nh2 [PPI-482 (isomer 2)],ΔLag 5 μM,[8],1.6
H-d(FFVL)-nh2 [PPI-602],ΔLag 5 μM,"Table X, 5 μM test compound",1.6
Ac-d(LFFFL)-nh2 [PPI-644],ΔLag 5 μM,"Table IX, 5 μM test compound",2.1
4-Hydroxyphenylacetyl-d(LVFFA)-nh2 [PPI-559],ΔLag 5 μM,"Table VIII, 5 μM test compound",3.5
cholyl-D-Leu-D-Val-D-Phe-phenethylamide [PPI-494],ΔLag 2 μM,[5],1.0
same,ΔLag 3 μM,[6],1.3
same,ΔLag 4 μM,[6],1.4
same,ΔLag 5 μM,[7],1.4
same,ΔLag 5 μM,[1],1.5
same,ΔLag 5 μM,"Table IX, 5 μM test compound",1.3
Butanoyl-d(LVFFA)-nh2 [PPI-525],ΔLag 5 μM,[1],1.0
Glycolyl-d(FFFVL)-nh2 [PPI-596],ΔLag 5 μM,"Table IX, 5 μM test compound",3.6
same,ΔLag 5 μM,[8],3.6
4-Hydroxybenzoyl-d(LFFFL)-nh2 [PPI-643],ΔLag 5 μM,"Table IX, 5 μM test compound",2.2
3-Hydroxycinnamoyl-d(LVFFA)-nh2 [PPI-538],ΔLag 5 μM,"Table IX, 5 μM test compound",2.0
h-d(AFFVL)-nh2 [PPI-500],ΔLag 0.5 μM,0.5 μM test compound,1.0
same,ΔLag 5.0 μM,,>6.0
same,ΔLag […],,1.8
4-Hydroxycinnamoyl-d(LVFFA)-nh2 [PPI-537],ΔLag 5 μM,"Table IX, 5 μM test compound",1.6
same,ΔLag 5 μM,[8],1.0
